Results: patent publication US20180221343A1, “PHARMACEUTICAL COMPOSITION FOR PREVENTING OR TREATING MACULAR DEGENERATION” (KOREA RESEARCH INSTITUTE OF CHEMICAL TECHNOLOGY, priority 2011, published 2018)

Tests used:
corneal epithelial cells = test: Effects on normal regeneration of corneal epithelial cells in animal models; type: in vivo, rats; details: eye drop 50 μl twice a day
Procedure: Animal models having damage in the corneal epithelial cells were established by anesthetizing rats (8 weeks old, 200 g to 250 g) with a mixed solution of rompun and zoletil (1 ml/kg) and then scraping the corneal epithelial cells at the center of the cornea in a circular form having 2 mm diameter with a surgical knife. The removal of corneal epithelial cells was confirmed with a 1% fluorescein solution. The eye drop formulation (50 μl) used in Example 2 was administered twice a day, i.e., every 12 hours. The evaluations quantifying the photographs of FIG. 5 were performed by using the Image J (NIH, USA) program and the results thereof were shown in FIG. 6.

corneal angiogenesis [1] = test: Inhibitory effects against corneal angiogenesis, subconjunctival injection and eye drop-administration; type: in vivo, Sprague Dawley rats; details: subconjunctival injection 20 μl plus eye drop 50 μl; KR 0.3 mg/ml, Avastin 10 mg/ml
Procedure: The tests were performed by using Sprague Dawley rats (8 weeks old, male) as animals having corneal damage (15 rats for the experiment group; and 1 rat for normal group, respectively). The corneal damage was induced by applying a cotton swab coated with silver nitrate to the surface of the rat corneas, as as to induce a damage having a diameter of 2 mm in the central cornea. On the third day after inducing the corneal damages, we confirmed the establishment of corneal angiogenesis-inducing models and then subconjunctivally injected a solution (20 μl) prepared by dissolving the compound of Preparation Example 23, i.e., (2R,3R,4S)-6-amino-4-[N-(4-chlorophenyl)-N-(1H-imidazol-2-ylmethyl)amino]-3-hydroxy-2-methyl-2-dimethoxymethyl-3,4-dihydro-2H-1-benzopyran (KR-31831) in phosphate buffered saline (PBS) containing 10% PEG 400, in the concentration of 0.3 mg/ml. […] The evaluations quantifying the photographs of FIG. 1 were performed by using the Image J (NIH, USA) program and the results thereof were shown in FIG. 2.
Except for performing both the subconjunctival injection and the eye drop-administration of (2R,3R,4S)-6-amino-4-[N-(4-chlorophenyl)-N-(1H-imidazol-2-ylmethyl)amino]-3-hydroxy-2-methyl-2-dimethoxymethyl-3,4-dihydro-2H-1-benzopyran and Avastin, the inhibitory effects against angiogenesis were evaluated according to the same manners as in Example 1. […]

retinal angiogenesis = test: Laser-induced retinal damage model in micro pigs, fluorescein intensity; type: in vivo, Yutacan Micro pigs
Procedure: The tests were performed by using Yutacan Micro pigs (3 kg, male) as animal models having retinal damage (15 pigs for the experiment group). The retinal macular degeneration models were established according to the same procedures as in Brown Norway rats of Example 5. The eye drop formulation (100 μl, 0.9 mg/ml) prepared according to the same procedures as in Example 2 was administered four times per day for 2 weeks. For vitreous injection, the solution of the same compound (20 μl, 0.3 mg/ml) was injected into the vitreous humor once. 2 weeks after the administrations, 1% fluorescein was intravenously injected so as to observe the laser-induced damage site; and the effects of the compound of the present invention, i.e., (2R,3R,4S)-6-amino-4-[N-(4-chlorophenyl)-N-(1H-imidazol-2-ylmethyl)amino]-3-hydroxy-2-methyl-2-dimethoxymethyl-3,4-dihydro-2H-1-benzopyran. The evaluations quantifying the photographs of FIG. 9 were performed by using the Image J (NIH, USA) program and the results thereof were shown in FIG. 10.

corneal angiogenesis [2] = test: Inhibitory effects against corneal angiogenesis in animal models having corneal damage (subconjunctival injection); type: in vivo, Sprague Dawley rats; details: subconjunctival injection 20 μl; KR 0.3 mg/ml, Avastin 10 mg/ml; 1 week after administration
Procedure: The tests were performed by using Sprague Dawley rats (8 weeks old, male) as animals having corneal damage (15 rats for the experiment group; and 1 rat for normal group, respectively). The corneal damage was induced by applying a cotton swab coated with silver nitrate to the surface of the rat corneas, as as to induce a damage having a diameter of 2 mm in the central cornea. On the third day after inducing the corneal damages, we confirmed the establishment of corneal angiogenesis-inducing models and then subconjunctivally injected a solution (20 μl) prepared by dissolving the compound of Preparation Example 23, i.e., (2R,3R,4S)-6-amino-4-[N-(4-chlorophenyl)-N-(1H-imidazol-2-ylmethyl)amino]-3-hydroxy-2-methyl-2-dimethoxymethyl-3,4-dihydro-2H-1-benzopyran (KR-31831) in phosphate buffered saline (PBS) containing 10% PEG 400, in the concentration of 0.3 mg/ml. In case of the control group, the PBS (20 μl) containing 10% PEG 400 was subconjunctivally injected. As a positive control, a solution (20 μl) prepared by dissolving Avastin (used as an angiogenesis inhibitor) in PBS in the concentration of 10 mg/ml was subconjunctivally injected. The evaluations quantifying the photographs of FIG. 1 were performed by using the Image J (NIH, USA) program and the results thereof were shown in FIG. 2.

[3] = test system: rat corneal epithelial wound; test: Corneal Wound Healing Assay (2); type: in vivo, SD rats; details: topical 3 and 6 mg/ml every 6 hour; observed at 0 and 18 hours
Procedure: SD rats (male, 8 weeks, 250 g) were used. Animal study protocol was in accordance with the Association for Research in Vision and Ophthalmology Statement for the Use of Animals in Ophthalmic and Visual Research. All animals were housed in individual cages and maintained under standard conditions (12 hour light-dark cycle).
Rats were anesthetized by Zoletil® (50 mg/kg, Tiletamina 25 mg, Zolazepam 25 mg; Vibrac, Carros, France) and Rompun® (10 mg/kg, Bayer, France). The cornea was anesthetized by topical 0.5% proparacaine (Alcaine®; Alcon, Fort Worth, Tex., USA). After applying 0.5% proparacaine drops, 5.0 mm Trephine Blade® (Katena, Denville, N.J., USA) was placed and fixed firmly on the corneal surface. One drop of 20% ethanol were put into the tephine well and left in place for 30 seconds, then absorbed with a dry cellulose sponge (Merocel®; Medtronic Solan, Jacksonville, Fla., USA) and irrigated with normal saline. And the epithelium was removed in 6.0 mm diameter.
The drugs were each topically applied in 3 mg/ml (0.3%) and 6 mg/ml (0.6%) concentrations (in 5% DMSO, 10% PEG (Mw 400) and 85% saline (0.9% NaCl)) in every 6 hour, respectively.
The corneal wounds were captured by digital camera under cobalt blue light and the defect area was analyzed by Image J software (Ver 4.1, NIH). The significance between Vehicle and each group was analyzed by paired T-test, and the significance of the test was analyzed by One Way ANOVA analysis.

inhibitory effect on normal healing of rat corneal epithelial wound [3]: did not show inhibitory effect
SMILES: COC(OC)[C@]1(C)Oc2ccc(N)cc2[C@H](N(Cc2ncc[nH]2)c2ccc(Cl)cc2)[C@H]1O [KR-31831, (2R,3R,4S)-6-amino-4-[N-(4-chlorophenyl)-N-(1H-imidazol-2-ylmethyl)amino]-3-hydroxy-2-methyl-2-dimethoxymethyl-3,4-dihydro-2H-1-benzopyran]
healing rate of corneal epithelial damage (corneal epithelial cells; 0 hour after the administration): 52±9% | healing rate of corneal epithelial damage (corneal epithelial cells; 18 hours after the administration): 55±9% | healing rate of corneal epithelial damage (corneal epithelial cells; 36 hours after the administration): 94±8% | angiogenesis in comparison with the angiogenesis (100%) of the control group (corneal angiogenesis [1]): 25.1±10.8% | intensity at laser-induced damage site (non-drug administered control group = 1) (retinal angiogenesis; eye drop formulation 100 μl, 0.9 mg/ml, 4 times per day, 2 weeks): 0.46±0.17 | intensity at laser-induced damage site (non-drug administered control group = 1) (retinal angiogenesis; vitreous injection 20 μl, 0.3 mg/ml, once, 2 weeks after): 0.36±0.14 | corneal angiogenesis in comparison with the corneal angiogenesis (100%) of the control group (corneal angiogenesis [2]): 52.6±10%
